The record followed here is patent US10939680B2, “Herbicidal composition” (priority 2014, dated 2021).

The test system of experiment [1] is rye-grass (Lolium multiflorum). Nature of the experiment: Efficiency test of the herbicidal composition on rye-grass in oilseed rape fields. It counts as in vivo. As to conditions: for percentage of weeds eliminated, Trial ALS11H56-02 / percentage of weeds eliminated, Trial ALS11H56-04 / percentage of weeds eliminated, Trial ALS12H56-03: crop OSR; for percentage of weeds eliminated, Trial ALS11H56-02 / percentage of weeds eliminated, Trial ALS11H56-04: 53 DAA; for percentage of weeds eliminated, Trial ALS12H56-03: 58 DAA; for Maximum percentage of weeds eliminated: maximum of three OSR trials; for Maximum percentage of weeds eliminated / Minimum percentage of weeds eliminated: 53-58 DAA; for Minimum percentage of weeds eliminated: minimum of three OSR trials. An excerpt: This plant, also called […] or Italian rye-grass (Lolium multiflorum) is traditionally considered to be a pest.
The composition has been tested on different parcels of oilseed rape (OSR for Oilseed rape, Brassica napus).
Findings relating to damages caused by the different compounds that were trialed are set out in percentages of weeds eliminated from 0 to 100% with respect to a trialed lot in which no herbicidal treatment was applied. The number, 0, corresponds to no observed damage to weeds whereas the number, 100, corresponds to an elimination of the entirety of the weeds.
Further, a volume of 0.8 L of the aforementioned composition has been applied per hectare to the treated lot.
Quizalofop-p-ethyl and flauzifop-p-butyl belong to the aryloxyphenoxypropionate family. A volume of 1.2 L of quizalofop-p-ethyl per hectare and a volume of 1.5 L of flauzifop-p-butyl per hectare have respectively been applied.
The compositions—ALSNC10HCLQ01 0.8 and Q+C 1:1 (0.4-0.5 liters per hectare) and quizalofop-p-ethyl (1.2 liters per hectare) which were tested have been diluted, prior to their application, in 1 L of adjuvant oil (Actirob).
Different trials have been conducted in different fields where oilseed rape (OSR) is grown. The efficiency of different products and of the herbicidal composition referred to in the invention have been evaluated at different time intervals following the application of the said products to the crop in question (DAA means “days after application”). For example, the efficiency of products has been measured 53 and 58 days after application to the field of oilseed rape. These intervals following application of the composition are necessary and adequate to enable the ultimate efficiency of the trialed products to be judged.

In experiment [2] the test system is blackgrass (Alopecurus myosuroides). Nature of the experiment: Efficiency test of the herbicidal composition on blackgrass in field crops. The conditions noted are these: for percentage of weeds eliminated, Trial No. ALS12H48 -05: 44 DAA; for percentage of weeds eliminated, Trial No. ALS11H56-01: 50 DAA; for Maximum percentage of weeds eliminated: maximum of the trials; for Maximum percentage of weeds eliminated / Minimum percentage of weeds eliminated: 44-50 DAA; for Minimum percentage of weeds eliminated: minimum of the trials. It counts as in vivo. The method, then: Trials were also carried out to show the efficiency of the herbicidal composition referred to in the invention on a second weed called blackgrass. This plant is an annual plant and has traditionally been seen as a weed in cultivated fields.
The composition was tested on crops including crops of beetroot (Sugar beet, Beta vulgaris), oilseed rape (OSR, Brassica napus).
The same compounds that were used in Example 1 were evaluated for efficiency.
In the same manner as for Example 1, different trials were carried out in different fields, in each which a plant of interest was cultivated.
In this example, tests were carried out on two plots of oilseed rape, on the one hand, and in a lot of beetroot on the other hand.
The efficiency of different products and the herbicidal composition referred to in the invention have been evaluated at different intervals following the application (DAA) of the aforementioned products onto the crop in question.
For example, the efficiency of products has been measured at 44, 46 and 50 days following application of the products.

Regarding `CCCCOC(=O)[C@@H](C)Oc1ccc(Oc2ccc(C(F)(F)F)cn2)cc1` [flauzifop-p-butyl], in experiment [1], the “percentage of weeds eliminated, Trial ALS11H56-02” value was 3%; the “percentage of weeds eliminated, Trial ALS11H56-04” value stood at 66%; the “percentage of weeds eliminated, Trial ALS12H56-03” value is 46%; the “Maximum percentage of weeds eliminated” value was found to be 66%. Besides, in experiment [1], the “Minimum percentage of weeds eliminated” value is given as 3%. Further, in experiment [2] (crop OSR), the “percentage of weeds eliminated, Trial No. ALS12H48 -05” value is recorded as 52% and the “percentage of weeds eliminated, Trial No. ALS11H56-01” value came out at 76%. For the same compound, in experiment [2], the “Maximum percentage of weeds eliminated” value is listed as 76% and the “Minimum percentage of weeds eliminated” value was 52%.

For `CCOC(=O)[C@@H](C)Oc1ccc(Oc2cnc3cc(Cl)ccc3n2)cc1` [quizalofop-p-ethyl], in experiment [1], the “percentage of weeds eliminated, Trial ALS11H56-02” value was 26%; the “percentage of weeds eliminated, Trial ALS11H56-04” value worked out at 76%; the “percentage of weeds eliminated, Trial ALS12H56-03” value is listed as 68%; the “Maximum percentage of weeds eliminated” value is given as 76%. For the same compound, in experiment [1], the “Minimum percentage of weeds eliminated” value is listed as 26%. Moreover, in experiment [2] (crop OSR), the “percentage of weeds eliminated, Trial No. ALS12H48 -05” value is on record as 50% and the “percentage of weeds eliminated, Trial No. ALS11H56-01” value is on record as 63%. Moreover, the “percentage of weeds eliminated, Trial No. ALS11H42-02” value in experiment [2] (crop OSR, 46 DAA) is given as 30%. Moreover, in experiment [2], the “Maximum percentage of weeds eliminated” value was 63% and the “Minimum percentage of weeds eliminated” value amounted to 30%.
